One data set can be described thus: Cytotoxicity assay (XTT). The class given is cell-based. The note with it: human, HepG2 cells, XTT; mean ± SD, at least two independent experiments; read-out: CC50 (concentration of a compound causing 50% cytotoxicity). For orientation: Tetrazolium dyes change colour on reduction, which living cells bring about.
Another data set concerns HBV replication. The data set is described as follows: Antiviral assay (HBV replication luciferase reporter in HuH-7 cells). The settings on record: mean ± SD, at least two independent experiments. The class given is cell-based, Hepatitis B virus. In general terms: Reporter assays use an easily measured gene product as a stand-in for the process of interest.
Another data set has as its system HepG2 cells. The data set is described as follows: Cytotoxicity assay (XTT). The settings on record: for Concentration without cytotoxicity: cytotoxicity assay. The class given is cell-based.
The nature of data set [1]: Aqueous solubility (thermodynamic, DPBS). The class given is physicochemical. The note with it: Dulbecco's Phosphate-Buffered Saline (DPBS), aqueous buffer, thermodynamic from solid, pH 7.2, n = 3.
The nature of data set [2]: Plasma stability, human plasma. The class given is in vitro ADME. The note with it: pH 7.4, n = 3, read-out: Plasma Stability t1/2.
Data set [3] can be described thus: Plasma stability, mouse plasma. The class given is in vitro ADME. The note with it: CD-1, pH 7.4, n = 3, read-out: Plasma Stability t1/2.
The nature of data set [4]: Microsomal stability, human liver microsomes. The class given is in vitro ADME. The settings on record: pH 7.4, cofactor NADPH, n = 3, read-out: Microsomal Stability t1/2. On the technique in general: Microsomes from liver hold many membrane-bound enzymes, among them those of drug oxidation.
The nature of data set [5]: Microsomal stability, mouse liver microsomes. The class given is in vitro ADME. The settings on record: pH 7.4, cofactor NADPH, n = 3, read-out: Microsomal Stability t1/2.
The target of the next data set is T1, HBV Cp (C150 dimer) (Hepatitis B virus genotype D subtype adw, UniProt P03147, R150C).
T1 construct: made in house; host or cells: E. coli BL21 (DE3), pET11a
Briefly: Thermal shift assay (TSA). The format is binding. The note with it: 20 µM compound, 1% DMSO.

Here are results for eleven compounds from article PMC8146408 (Viruses, 2021).

In general, solubility refers to how much of the substance goes into solution per volume.

Each structure is given as a SMILES string. In brackets after ≈: the same amount, converted by molar mass. Where only a bound is given, the exact number is not on record here.

T1 sequence (P03147 1-150 R150C): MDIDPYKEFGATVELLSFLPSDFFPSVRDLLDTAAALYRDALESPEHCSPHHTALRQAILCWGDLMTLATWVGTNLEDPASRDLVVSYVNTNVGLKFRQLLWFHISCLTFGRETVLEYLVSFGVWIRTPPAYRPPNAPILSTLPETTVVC

For the compound `CSc1c(C(=O)Nc2ccc(F)c(C)c2)c(C)[nH]c(=O)c1C#N` [ZW-1845], the CC50 in “Cytotoxicity assay (XTT)” is greater than 100 µM.
On to `Cc1cc(NC(=O)c2cnc3nc4ccccc4n3c2C)ccc1F` [ZW-1841], for which, in the data set on HBV replication, the “EC50 (concentration of a compound inhibiting HBV replication by 50%)” value was “single-digit”. The CC50 in the data set “Cytotoxicity assay (XTT)” is greater than 100 µM. The Concentration without cytotoxicity in the data set on HepG2 cells is no less than 100 µM. The compound further displayed a solubility at 72 h in data set [1] of 0.31 ± 0.03 µM (≈ 0.104 µg/mL). Further, the half-life at 1 µM in data set [2] is greater than 6 h; in [3] it was greater than 6 h; in data set [4] it was greater than 2 h; in data set [5], 0.543 ± 0.0267 h. Moreover, on HBV Cp (C150 dimer), the “TSA profile (effect on HBV Cp melting curve)” value (“TSA profile” for short) was “bind to HBV Cp and affect capsid formation and stability”.
`O=C1NC2(CCCC2)C(=O)N1Cc1cn(-c2ccccc2)nc1-c1ccccc1` [ZW-1889]: the CC50 in the data set “Cytotoxicity assay (XTT)” was 58.2 ± 5.6 µM.
In the case of `CC1=C(C(=O)Nc2ccc(F)c(C)c2)C=Nc2ccccc2N1` [ZW-1843], the CC50 in the data set “Cytotoxicity assay (XTT)” was greater than 100 µM.
`Cc1cccc(NC(=O)c2cccc(CN3C(=O)CNC3=O)c2)c1` [ZW-1946]: the CC50 in the data set “Cytotoxicity assay (XTT)” is 44.1 ± 0.6 µM.
Still for that read-out and setting: with `Cc1cc(C)c(CNC(=O)c2cn(Cc3ccccc3)nc2-c2ccccc2)c(=O)[nH]1` [ZW-1918] the figure was 47.6 ± 0.2 µM.
For the compound `Cc1cc(NC(=O)c2c(C)[nH]c(=O)c3c(N)n[nH]c23)ccc1F` [ZW-1847], in the data set on HBV replication, the “EC50 (concentration of a compound inhibiting HBV replication by 50%)” value is recorded as “single-digit”. Besides, the CC50 in “Cytotoxicity assay (XTT)” is greater than 100 µM. The compound also registered a Concentration without cytotoxicity in the data set with HepG2 cells of no less than 100 µM. In data set [1], this compound registered a solubility at 72 h of 2.14 ± 0.03 µM (≈ 0.675 µg/mL). Further, the half-life at 1 µM in data set [2] was greater than 6 h; in data set [3], greater than 6 h; in data set [4], greater than 2 h; in [5], greater than 2 h. Further, the “TSA profile” value on HBV Cp (C150 dimer) was “bind to HBV Cp and affect capsid formation and stability”.
Take `Cc1cn2c(C)c(C(=O)Nc3ccc(F)c(C)c3)cnc2n1` [ZW-1842]: the CC50 in “Cytotoxicity assay (XTT)” is greater than 100 µM.
With `COc1cccc(N2CC(C(=O)Nc3cccc(Cl)c3C)CC2=O)c1` (centres unmarked) [ZW-1929], the CC50 in “Cytotoxicity assay (XTT)” turned out to be 41.3 ± 1.7 µM.
Take `CC1Oc2c(cccc2C(=O)Nc2cccc(C(F)F)c2)NC1=O` (centres unmarked) [ZW-1888]: the CC50 in the data set “Cytotoxicity assay (XTT)” worked out at 47 µM; in the data set with HepG2 cells (HepG2 cells, XTT, mean ± SD, at least two independent experiments, read-out: CC50 (concentration of a compound causing 50% cytotoxicity)), 46.6 ± 2.4 µM. Further, on HBV Cp (C150 dimer), the “TSA profile” value is “bind to HBV Cp and affect capsid formation and stability”.
As to `Cc1cc(NC(=O)c2cc(C#N)c(=O)[nH]c2C)ccc1F` [ZW-1840], the CC50 in “Cytotoxicity assay (XTT)” is greater than 100 µM.
